Experimental data as given in patent publication US8058442B2 (Technion Research and Development Foundation Ltd., priority 2002, dated 2011).
Read-outs that look alike come from different tables or passages of the source. Marks after values point to notes of the source that are not given here. Each block holds one compound with its values, some of them ahead of it.

Columns and labels:
[1] = Iron chelation in solution: fluorescence dequenching of iron-quenched calcein; conditions: Fe-CAL in HBS pH 7.4, room temperature, 1 h incubation, read-out: half maximal dequenching level
Experimental: Iron binding was determined by the chelator capacity for restoring the fluorescence of iron-quenched calcein (CAL), a dynamic fluorescent metallosensor. The iron-scavenging properties of the chelators were assessed in solution, by mixing iron salts with free CAL.
Iron precomplexed calcein (Fe-CAL) solutions of 1 μm (in Hepes 20 mM buffered saline, pH 7.4=HBS) were incubated in the presence of the indicated concentrations of different chelators at room temperature and the fluorescence intensity (475 nm->520 nm) followed with time in a Tecan fluorescence plate reader, using 96-well culture plates (Nunc) at 100 μl final volume. The time-dependent complexation of iron from Fe-CAL by the chelators was followed by fluorescence dequenching. The fluorescence intensity attained after 1 h incubation is shown as a function of the chelator concentration.
The corresponding half maximal dequenching level for the corresponding chelator was (in μM) (rank order from the fastest acting to the slowest): […]

[2] = n-octanol/water shake-flask distribution coefficient; assay type: physicochemical; conditions: for D in 0.01N HCl / D in 0.01N NaOH / D in H2O: distribution ratio D = Corg/Caq
Source text: The partition coefficient (Pow) or the distribution ratio (Dow) between octanol and water are most commonly used measures of the hydrophobicity of compounds. Dow can depend on the concentration of solute, but at reasonably low concentrations. If the solute is in the same form in both phases, Dow becomes constant and is called the partition coefficient Pow. Pow plays an important role in determining the physico-chemical properties and the behaviour of numerous organic compounds in biological systems. Pow is applied to quantitative structure-activity relationship studies, and as a measure of hydrophobicity. All the partition measurements are carried out using a 1-octanol/water shake-flask procedure (Leo, A J. 1991, “Hydrophobic parameter: measurement and calculation”, Methods Enzymol. 202:544-91) or simply by the elution time of solute from HPLC column. Thereafter, the transport properties of the iron-complexes are examined in the water/lipid membrane system (liposomes), which mimics biomembranes much better than the octanol/water system (Breuer et al, 1995).
1-Octanol (Riedel-deHaën, synthesis grade (250-270 nm abs.<0.06) and glass distilled deionized water were used as the partitioning solutions. A Hewlett-Packard 8450A diode array spectrophotometer was used for the quantitative determination of the tested com-pounds in the standard solutions and in the partitioned solutions. The aqueous phase stock solutions were shaken with an excess of 1-octanol to presaturate them and were then allow-ed to stand overnight before use. The 1-octanol stock solutions were also presaturated with 10 mM NaOH and allowed to settle overnight. The experiments were performed in 10-ml stoppered centrifuge tubes. The tubes were inverted gently for 5 min and then, to assure complete phase separation, they were centrifuged for 20 min at 1,000-2,000 g. The aqueous and organic phases were removed separately and analyzed by UV spectrophotometry.
Lipophilicity plays an important role in drug absorption and distribution. The logarithm of the n-octanol/water distribution coefficients (logD) is the most commonly used measure of the lipophilicity of a drug candidate. Here we used an n-octanol/water shake-flask procedure to determine logD. […] In acidic and basic solution, all the test compounds have low log D values, which refer to a good hydrophilicity. This can be explained by the formation of oxinium chloride (in acid) and sodium oxinate (in base) derivatives.

[3] = test system: human erythroleukemia K562 cells; test: Iron permeation of the chelators into calcein-loaded K562 cells; assay type: cell-based; conditions: 5 μM chelator, 37° C.
Experimental: The iron-scavenging properties of the chelators were assessed in human erythroleukemia K562 cells, by loading with the permeant CAL-AM probe, in situ formation of free CAL, and binding of cytosolic labile iron. Calcein-AM readily passes through the cell membrane of viable cells because of the enhanced hydrophobicity as compared to Calcein. When Calcein-AM permeates into the cytoplasm, it is hydrolyzed by esterases in cells to the parent Calcein, a pH-independent, cytosolic fluorescent marker, which remains inside of the cell. The time-dependent recovery of fluorescence in the presence of a given chelator provided a continuous measure for the capacity of the chelator to access the iron/CAL-containing compartment.
Calcein uptake and intracellular fluorescence were determined as follows: K562 erythroleukemia cells were preloaded with calcein (CAL) by incubation with […] of the fluorescent probe CAL-AM for 5 min at 37° C., washed and incubated in HBS medium containing anti-CAL antibodies in order to quench traces of extracellular-associated fluorescence. The suspensions were placed in 96-well plates (100 μl final volume) and analyzed as described above while maintaining the system at 37° C. At the indicated time, the indicated chelator was added so as to reach a final 5 μM concentration.
The values of half maximal time (sec) and fraction of fluorescence recovery were: […]

rat brain MAO-A = molecular target: T1, rat brain MAO-A (Rattus norvegicus, UniProt P21396); test: In vitro inhibition of rat brain MAO-A; assay type: biochemical; conditions: rat brain homogenate
T1 construct: from tissue; host or cells: rat brain homogenate, 4500 g pellet
T1 sequence (P21396 1-526): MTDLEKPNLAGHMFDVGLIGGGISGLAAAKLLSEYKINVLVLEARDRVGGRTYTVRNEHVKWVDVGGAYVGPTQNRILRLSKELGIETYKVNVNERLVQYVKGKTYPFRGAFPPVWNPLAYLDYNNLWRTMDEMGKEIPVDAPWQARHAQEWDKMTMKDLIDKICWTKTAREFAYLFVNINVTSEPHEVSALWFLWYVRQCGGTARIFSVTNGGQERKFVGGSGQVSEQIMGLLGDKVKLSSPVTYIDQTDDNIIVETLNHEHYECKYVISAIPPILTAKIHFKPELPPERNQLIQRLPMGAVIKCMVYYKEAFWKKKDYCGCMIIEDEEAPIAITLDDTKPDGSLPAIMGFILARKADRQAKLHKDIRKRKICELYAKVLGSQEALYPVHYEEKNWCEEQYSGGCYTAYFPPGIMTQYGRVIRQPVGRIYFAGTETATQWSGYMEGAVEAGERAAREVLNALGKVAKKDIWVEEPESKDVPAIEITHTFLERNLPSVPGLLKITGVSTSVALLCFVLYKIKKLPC
Experimental: (§1) Rats were decapitated and the brains were quickly taken into a weighted ice-cold sucrose buffer (0.32 M), and their weights were determined. All subsequent procedures were performed at 0-4° C. The brains were homogenized in 0.25 M sucrose (one part tissue to 20 parts sucrose) in a Teflon glass homogenizer followed by the addition of sucrose buffer to a final concentration of 10% homogenate. The homogenates were centrifuged at 600 g for 15 min. The supernatant fraction was taken out and centrifuged at 4500 g for 30 min, the pellet was diluted in 0.32 M sucrose buffer and kept frozen for later assaying of MAO. Protein concentration was determined with Bradford reagent at 595 nm, using bovine serum albumin as a standard.
(§2) The test compound was added to a suitable dilution of the enzyme preparation (70 μg protein for MAO-B and 150 μg MAO-A assay) in 0.05 M phosphate buffer (pH 7.4). The mixture was incubated together with […], a specific inhibitor of MAO-B (for determination of MAO-A) or […] clorgylin, a specific inhibitor of MAO-A (for determination of MAO-B). Incubation was carried for 1 h at 37° C. before addition of ^14C-5-hydroxytryptamine binoxalate ([…]) for determination of MAO-A, or ^14C-phenylethylamine 100 µM for determination of MAO-B, and incubation continued for 30 min or 20 min, respectively. The reaction was stopped with 2 M ice-cold citric acid, and the metabolites were extracted and determined by liquid-scintillation counting in cpm units.
(§3) MAO-A and MAO-B activities were determined in rat brain homogenate in vitro following incubation with varying concentrations of the test compounds.
In another experiment, the in vitro inhibitory activity of HLA20, M32, VK-28, M30, M31, and propargylamine (P) was tested against rat brain MAO-A. The test compounds were added to buffer containing 10^−7M deprenyl and were incubated with the tissue homogenate for 60 min at 37° C. before addition of ^14C-5-hydroxytryptamine. MAO-A activity in presence of the test compound was expressed as a percentage of that in control samples.

rat brain MAO-B = molecular target: T2, rat brain MAO-B (Rattus norvegicus, UniProt P19643); test: In vitro inhibition of rat brain MAO-B; assay type: biochemical; conditions: for IC50: rat brain homogenate
T2 construct: from tissue; host or cells: rat brain homogenate, 4500 g pellet
T2 sequence (P19643 1-520): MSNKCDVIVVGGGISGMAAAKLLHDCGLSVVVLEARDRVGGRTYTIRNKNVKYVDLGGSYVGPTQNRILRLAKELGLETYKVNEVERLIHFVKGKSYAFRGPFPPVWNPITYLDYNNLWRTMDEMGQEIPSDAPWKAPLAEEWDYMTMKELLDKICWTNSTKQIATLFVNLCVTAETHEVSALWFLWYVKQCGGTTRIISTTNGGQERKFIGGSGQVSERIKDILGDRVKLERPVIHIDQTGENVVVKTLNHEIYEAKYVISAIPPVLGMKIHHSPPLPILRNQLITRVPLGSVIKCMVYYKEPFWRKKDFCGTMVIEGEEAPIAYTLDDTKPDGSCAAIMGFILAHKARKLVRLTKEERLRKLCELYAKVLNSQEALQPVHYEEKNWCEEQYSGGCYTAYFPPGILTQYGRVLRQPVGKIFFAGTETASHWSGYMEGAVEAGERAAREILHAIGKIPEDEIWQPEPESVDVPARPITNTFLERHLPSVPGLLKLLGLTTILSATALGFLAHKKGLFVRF
Experimental: as §1, §2, §3
MAO-B activity in presence of the test compound was expressed as a percentage of that in control samples.

Compound: CCOC(=O)C(Cc1ccc(O)c2ncccc12)(NC(C)=O)C(=O)OCC
EC50 ([1]; FIG. 1A): 5 µM
logD ([2]; H2O, read-out: LogD in H2O): 2.19
D in 0.01N HCl ([2]; 0.01N HCl): 0.043
D in 0.01N NaOH ([2]; 0.01N NaOH): 0.097
D in H2O ([2]; H2O): 155.68
logD ([2]; pH 2, 0.01N HCl, read-out: LogD in 0.01N HCl): -1.37
logD ([2]; pH 12, 0.01N NaOH, read-out: LogD in 0.01N NaOH): -1.01

Compound: O=C(NN=Cc1ccccc1O)c1ccncc1 [SIH, salicylaldehyde isonicotinoyl hydrazone, reference compound]
half maximal time ([3]; FIG. 2A): 125 s
half maximal time ([3]; FIG. 2C): 100 s

Compound: CC(=O)N(O)CCCCCNC(=O)CCC(=O)N(O)CCCCCNC(=O)CCC(=O)N(O)CCCCCN [DFO, desferrioxamine B, reference compound]
EC50 ([1]; FIG. 1A): 0.5 µM
EC50 ([1]; FIG. 1B): 0.5 µM
EC50 ([1]; FIG. 1C): 0.5 µM

Compound: C#CCN [Propargylamine, propargylamine, reference compound]
IC50 (rat brain MAO-A): 66.3 µM
IC50 (rat brain MAO-B): 10.1 µM

Compound: Cc1c(O)c(=O)ccn1C [Compound L1, 1,2-dimethyl-3-hydroxy-pyridin-4-one, reference compound]
EC50 ([1]; FIG. 1A): 8.3 µM
EC50 ([1]; FIG. 1B): 8.4 µM
EC50 ([1]; FIG. 1C): 6.6 µM

Continued, in another order:

EC50 ([1]; FIG. 1A): 7.2 µM
logD [2]: -1.7
D in 0.01N NaOH ([2]; 0.01N NaOH): 0.0014
D in H2O ([2]; H2O): 0.018
logD ([2]; pH 5.64): -1.42
logD ([2]; pH 12): < -2
D ([2]; phosphate buffer (pH = 5.64), printed in the 0.01N HCl column): 0.038^b
Compound: CCOC(=O)C(N)Cc1ccc(O)c2ncccc12 (racemic) [HLM9, DL-3-(8-hydroxyquinolin-5-yl)alanine ethyl ester]
half maximal time ([3]; FIG. 2A): 200 s

EC50 ([1]; FIG. 1B): 9.85 µM
Compound: N[C@@H](Cc1ccc(O)c2ncccc12)C(=O)O [Compound M10, L-3-(8-hydroxyquinolin-5-yl)alanine]
half maximal time ([3]; FIG. 2B): 1050 s

EC50 ([1]; FIG. 1A): 3.5 µM
EC50 ([1]; FIG. 1B): 4.4 µM
logD [2]: 1.79
D in 0.01N HCl ([2]; 0.01N HCl): 0.018
D in 0.01N NaOH ([2]; 0.01N NaOH): 2.44
D in H2O ([2]; H2O): 62.96
logD ([2]; pH 2): -1.74
logD ([2]; pH 12): 0.39
Compound: CCOC(=O)N1CCN(Cc2ccc(O)c3ncccc23)CC1 [HLA16, ethyl 4-(8-hydroxyquinolin-5-ylmethyl)-1-piperazine carboxylate]
half maximal time ([3]; FIG. 2A): 225 s
half maximal time ([3]; FIG. 2B): 220 s

IC50 (rat brain MAO-A): < 0.1 µM
IC50 (rat brain MAO-B): < 0.1 µM
Compound: C#CCN(C)Cc1ccc(O)c2ncccc12 [Compound M30]

EC50 ([1]; FIG. 1C): 6 µM
Compound: N[C@@H](CSCc1ccc(O)c2ncccc12)C(=O)O [Compound M12, S-(8-hydroxyquinolin-5-ylmethyl)-L-cysteine]

EC50 ([1]; FIG. 1A): 6 µM
logD [2]: < -2
D in 0.01N HCl ([2]; 0.01N HCl): 0.0031
D in 0.01N NaOH ([2]; 0.01N NaOH): 0.020
D in H2O ([2]; H2O): 0.0049
logD ([2]; pH 2): < -2
logD ([2]; pH 12): -1.7
Compound: NC(Cc1ccc(O)c2ncccc12)C(=O)O (racemic) [HLM8, DL-3-(8-hydroxyquinolin-5-yl)alanine]
half maximal time ([3]; FIG. 2A): 600 s

EC50 ([1]; FIG. 1C): 5.4 µM
Compound: N[C@H](CSCc1ccc(O)c2ncccc12)C(=O)O [Compound M11, S-(8-hydroxyquinolin-5-ylmethyl)-D-cysteine]

effect on MAO-A (rat brain MAO-A): almost no effect
inhibition at 100 µM (rat brain MAO-B; 100 μM, read-out: inhibition of MAO-B): 14.2%
Compound: C#CCNC(Cc1ccc(O)c2ncccc12)C(=O)OCC (centres unmarked) [Compound M31]

EC50 ([1]; FIG. 1B): 9.7 µM
Compound: N[C@H](Cc1ccc(O)c2ncccc12)C(=O)O [Compound M9, D-3-(8-hydroxyquinolin-5-yl)alanine]

EC50 ([1]; FIG. 1C): 3.4 µM
Compound: Fmoc-KKC(HQ)L-NH2 [Compound M7]
